Columns and labels:
Type in all cases: in vivo
Design in all cases: key: 0: no effect; 10-25% kill; 26-35% kill; 36-45% kill; 46-55% kill; 56-65% kill; 66-75% kill; 76-85% kill; 86-99% kill; 9: 100% kill
[1] = tested on: Heliothis virescens, egg, tobacco budworm; assay: Tobacco budworm egg test, dipped cotton leaf and eggs; settings: 1000 ppm; mortality rating after 3 days
In short: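 Compound dissolved at 10,000 ppm in 35% aqueous acetone, diluted with water. A cotton leaf and a cheesecloth square with roughly 50-100 eggs aged 6-30 h are each dipped for about 3 s, then combined and kept humid. Mortality counted after 3 days and rated on a scale.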

[2] = tested on: Spodoptera eridania, 3rd instar larvae, southern armyworm; assay: Southern armyworm 3rd instar test, dipped limabean leaf; settings: for ARMYWORM Day 3: rating at 3 days; for ARMYWORM Day 5: rating at 5 days
In short: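 Compound dissolved in 35% acetone/water at 10,000 ppm stock, diluted with water. Sieva limabean leaves dipped 3 s, dried, and exposed to ten 3rd instar larvae on damp filter paper. Mortality, reduced feeding and molting interference scored at 3 and 5 days on a rating scale.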

[3] = tested on: Spodoptera eridania, 3rd instar larvae, southern armyworm; assay: Southern armyworm 7-day residual test; settings: R designates Residual: 7-day residual foliage, concentration not given; for ARMYWORM Day 3 R: rating at 3 days; for ARMYWORM Day 5 R: rating at 5 days
In short: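 Compound was dissolved in 35% aqueous acetone (10,000 ppm stock) and diluted with water before treating lima bean leaves. The leaves were aged 7 days under high-intensity greenhouse lamps (14 h day). Third-instar Spodoptera eridania larvae were then assayed on the foliage and rated on a scale.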

[4] = tested on: Spodoptera eridania, 3rd instar larvae, southern armyworm; assay: Southern armyworm systemic uptake (stem systemic) test; settings: cut stem in emulsion 3 days
[5] = tested on: Diabrotic undecimpunctata howardi, 3rd instar southern corn rootworm; assay: Southern corn rootworm soil test; settings: mortality rating after 6 days
In short: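 Compound applied in acetone to talc at 1.25 and 0.25 mg active ingredient per jar (about 50 and 10 kg/ha), dried, then mixed with millet seed and moist soil. Ten 3rd instar larvae added per jar; mortality counted at 6 days, with missing larvae scored dead. Results rated on a scale.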

[6] = tested on: Tetranychus urticae (OP-resistant strain), 2-spotted spider mite; assay: 2-spotted spider mite test, dipped infested limabean plants
In short: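 Mite-infested Sieva limabean plants (OP-resistant strain, ~100 mites per leaf, transferred ~2 h earlier) dipped 3 s with agitation in compound solution (10,000 ppm stock in 35% acetone/water, diluted with water). Mortality counted at 2 days; egg and nymph mortality assessed at 5 days; rated on a scale.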

Compound | TOBACCO BUDWORM Egg [1] | ARMYWORM Day 3 ([2]; 10 ppm) | ARMYWORM Day 5 ([2]; 10 ppm) | ARMYWORM Day 3 ([2]; 100 ppm) | ARMYWORM Day 5 ([2]; 100 ppm) | ARMYWORM Day 3 ([2]; 1000 ppm) | ARMYWORM Day 5 ([2]; 1000 ppm) | ARMYWORM Day 3 R [3] | ARMYWORM Day 5 R [3] | ARMYWORM Stem Sys [4] | SOUTHERN CORN ROOTWORM ([5]; 50 (ppm as headed)) | other results
CCOC(=S)SCn1c(Cl)c(C#N)c(Cl)c1-c1ccc(Cl)c(Cl)c1 [Example 37] | 0 | 9 (100% kill) | 9 (100% kill) | 9 (100% kill) | 9 (100% kill) | 9 (100% kill) | 9 (100% kill) | 9 (100% kill) | 9 (100% kill) | 0 | 0 | OP-RESISTANT MITES Adult ([6]; 10 ppm, adult mites, rating scale 0-9): 0; OP-RESISTANT MITES Nymph ([6]; 10 ppm, mite nymphs, rating scale 0-9): 4 (46-55% kill); OP-RESISTANT MITES Egg ([6]; 300 ppm, mite eggs, rating scale 0-9): 0; OP-RESISTANT MITES Nymph ([6]; 300 ppm, mite nymphs, rating scale 0-9): 0
CSCn1c(Br)c(Br)c(C#N)c1-c1ccc(C(F)(F)F)cc1 [Example 44] | 0 | 0 | 0 | 9 (100% kill) | 9 (100% kill) | 9 (100% kill) | 9 (100% kill) | 0 | 2 (26-35% kill) | 0 | 3 (36-45% kill) | SOUTHERN CORN ROOTWORM ([5]; 10 (ppm as headed)): 0; OP-RESISTANT MITES Adult ([6]; 10 ppm, mortality rating after 2 days): 0; OP-RESISTANT MITES Egg ([6]; 10 ppm, rating after 5 days): 0; OP-RESISTANT MITES Egg ([6]; 100 ppm, rating after 5 days): 7 (76-85% kill); OP-RESISTANT MITES Nymph ([6]; 100 ppm, rating after 5 days): 0; OP-RESISTANT MITES Egg ([6]; 300 ppm, rating after 5 days): 0

Source: EP0545103A1, “Insecticidal, acaricidal and molluscicidal 1-(substituted) thioalkylpyrroles” (priority 1991, dated 1993)
